Assays:
TRPV4 = target: T1, TRPV4 (Homo sapiens, UniProt Q9HBA0); experiment: Ca2+ imaging, Fura-2 F340/380 ratio after TRPV4 agonist; format: cell-based; parameters: TRPV4-induced calcium flux, ratio of F340/380: dose or concentration left out as unconfirmed
T1 construct: endogenous in cells; host or cells: HTM cells, NHF fibroblasts, NHKC keratinocytes, Lowe syndrome patient fibroblasts and keratinocytes
Experimental: Flow-induced Ca^2+ signals were examined in the presence and absence of cilia in HTM cells. To remove primary cilia, 2 mM aqueous chlorohydrate (Sigma, St. Louis) was added for 48 hours. Prior to flow experiments, cells were washed three times with PBS, and fresh medium was added for 24 hours. The Fura-2 loaded HTM cells were subjected to laminar flow rates as indicated. Single-cell analysis of the Ca^2+ signals (ratio 340/380 nm) of the same experiment was obtained. Intracellular Ca^2+ changes were monitored by ratiometric imaging of Fura-2 AM fluorescence in the HTM cells. HTM cells were loaded with Fura-2 AM for 1 hour at 37° C. in PBS with 40 μM fura-2 AM, 0.33 mM pyruvate, 0.901 mM Ca^2+, 0.5 mM Mg^2+, 5.5 mM glucose, and 0.1% BSA. The Fura-2 AM-loaded HTM cells were washed in PBS and were mounted in the chamber. Ca^2+ imaging experiments were performed using a monochromator-based TILL PHOTONICS imaging system, which was attached to an inverted ZEISS microscope equipped (×2.5 objective) with a back-illuminated ANDOR CCD camera. Fura-2 AM was alternately excited at 345 nm and 380 nm and the emitted light was collected using a 510-nm long-pass filter. The TILLVISION software (TILL PHOTONICS) was used to acquire all fluorescence imaging experiments and to perform the analysis of images. Images were acquired every 2 seconds. The background fluorescence was subtracted and the intracellular Ca^2+ concentration ([Ca^2+]i) was calculated using the equation: [Ca^2+]i=Kd×[(R−Rmin)/(Rmax−R)]×[Fmax(380)/Fmin(380)](R is the fluorescence ratio, Rmax is the ratio at saturation calcium concentration, Rmin is the ratio at zero calcium in the medium, Fmin(380) is the fluorescence at 380 nm at zero Ca^2+ concentration in the medium, and Fmax(380) is the fluorescence at 380 nm at saturation Ca^2+ concentration) (Touw et al., Am. J. Physiol. Gastro. Liver Physiology 2012, 302(1):G66-76).
For calcium flow experiments, HTM cells and NHF cells were first incubated in 3% BSA in PBS and stained with Fura2 dye for 1 hour. Ca^2+ flux was induced by laminar flow gradient (16 μl/s) over the cell surface, which bends cilia, followed by 10 mM KCl. Cells were imaged for calcium during flow. Calcium flux was also measured by F340/380 ratio in HTM cells and NHF cells after treatment with the 0.1 μM TRPV4 agonist GSK1016790A. Results presented represent calcium mobilization in three independent experiments.
HTM cells treated, with or without pressure, were further evaluated to determine their response to TRPV4 agonist. HTM cells were serum-starved for 48 hours to induce ciliogenesis, followed by treatment with 0 or 50 mmHg for 3 hours. Cells were loaded with Fura-2 AM dye for 1 hour, followed with […] TRPV4 agonist GSK1016790A.
OCRL is required for TRPV4-mediated calcium signalling in HTM cells. HTM cells were additionally treated with OCRL siRNA or scrambled control siRNA, with or without wild-type OCRL or OCRL-D499A rescue. 0.1 μM TRPV4 agonist GSK1016790A treatment was performed and calcium mobilization by F340/380 (value X 1000) was measured and shown.
Additionally, a Lowe syndrome patient's keratinocytes were isolated and assayed for their response to TRPV4 treatment. NHKC or Lowe keratinocytes were serum-starved, loaded with Fura-2 AM and then treated with 0.1 μM TRPV4 agonist GSK1016790A. F340/380 ratio (value X 1000) was determined.

wpk−/− rats = experiment: Intraocular pressure in wpk−/− rats (Tonolab tonometer); format: in vivo, rat; settings: 17-day-old wpk−/− rats, systemic, once per day for 8 days, agonist 50 ng/g, measured 24 hours after treatment
Experimental: All animal experiments followed the guidelines of the ARVO Statement for the Use of Animals in Ophthalmic and Vision Research and were approved by the Institutional Animal Care and Use Committee of Indiana University School of Medicine. Wpk rats, a polycystic kidney disease model, were housed under a 12-hour light/dark cycle with free access to water and food (Smith et al., Nat. Genet. 2006, 38(2):191-196). For […], 50 mg/ml sodium pentobarbital was injected.
(§1) lntraocular Pressure (TOP) was measured with the TONOLAB tonometer TV02 (Helsinki, Finland) with rats under topical anesthesia. IOP was measured using six valid rebound measurements of the device from the eye, where the mean of the middle five readings was taken for one summary measurement. A single set of readings was collected with the best reproducibility indicator during the IOP measurements.
Based on the results presented above, the functional consequences of activating TRPV4 on eye pressure were therefore assessed in the wpk rat model. The wpk rat is a well-established model for studying ciliopathy, as these animals develop hydrocephalus that responds to cilia-based therapy.
8-day old wpk^−/− rats were treated with sham, TRPV4 agonist (50 ng/g, GSK 1016790A), or antagonist (HC 067047) once per day for 8 days. […]

C57BL/6 WT mice = experiment: Intraocular pressure in C57BL/6 WT mice, 4 days of treatment; format: in vivo, mouse; settings: nine-week old C57BL/6 WT mice, systemic, daily over 4 days, 24 hours after treatment; decrease from 12.4
Experimental: as §1
This finding was confirmed in wild-type C5BL/6 mice treated with systemic TRPV4 agonist, antagonist, or sham control, daily over 4 days. Nine-week old C57BL/6 WT mice were treated with sham, TRPV/4 agonist GSK 1016790A or antagonist HC 067047 for 4 days. IOP was measured using a Tonolab tonometer 24 hours after treatment. As shown in FIG. 12D article, a decrease in IOP from 12.4 to 10.3 mmHg was seen.

HTM cells = experiment: Pressure-induced TNFα, TGFβ1 and Gli1 mRNA in serum-starved HTM cells (RT-PCR); format: cell-based, human; settings: 50 mmHg for 3 hours
Experimental: Total RNA was extracted using the RNAEASY® kit (Qiagen). Purified RNA was quantitated with the NANODROP® 2000 (Thermo Fisher Scientific, Lafayette, Colo.). Reverse transcription of total RNA was done using SUPERSCRIPT cDNA synthesis kit (Invitrogen) with random hexamers. Quantitative RT-PCR was performed using the RQ and ΔΔCt method on a Step One Real-Time PCR machine (Bio-Rad Laboratories, Hercules, Calif.). Each assay was performed in triplicate with Power SYBR green MasterMix (SA Biosciences, Frederick, Md.).
To analyze the cellular changes in the TM cells, a hydrostatic pressure chamber was developed similar to that of Mandel et al. (Invest. Ophthalmol. Vis. Sci. 2010, 51(6):3129-3138). The cells were grown in 60 mm polycarbonate dishes sealed to attach to a plastic column filled with 400 mL DMEM/F12 media with or without serum for cilia induction. The column was temperature controlled at 37° C. in humidified chamber. […]
HTM cells were serum-starved for 48 hours and treated with saline, saline plus 50 mmHg pressure, chlorohydrate, and chlorohydrate plus 50 mmHg pressure for 3 hours. Levels of mRNA of TNFα, TGFβ1 and Gli1 were then measured. […] Serum-starved HTM cells were also placed under 50 mmHg pressure for 0, 10, 20, 40, 60 and 80 minutes and analyzed for expression of TNFα and IL-33. […]

T1 sequence (Q9HBA0 whole entry): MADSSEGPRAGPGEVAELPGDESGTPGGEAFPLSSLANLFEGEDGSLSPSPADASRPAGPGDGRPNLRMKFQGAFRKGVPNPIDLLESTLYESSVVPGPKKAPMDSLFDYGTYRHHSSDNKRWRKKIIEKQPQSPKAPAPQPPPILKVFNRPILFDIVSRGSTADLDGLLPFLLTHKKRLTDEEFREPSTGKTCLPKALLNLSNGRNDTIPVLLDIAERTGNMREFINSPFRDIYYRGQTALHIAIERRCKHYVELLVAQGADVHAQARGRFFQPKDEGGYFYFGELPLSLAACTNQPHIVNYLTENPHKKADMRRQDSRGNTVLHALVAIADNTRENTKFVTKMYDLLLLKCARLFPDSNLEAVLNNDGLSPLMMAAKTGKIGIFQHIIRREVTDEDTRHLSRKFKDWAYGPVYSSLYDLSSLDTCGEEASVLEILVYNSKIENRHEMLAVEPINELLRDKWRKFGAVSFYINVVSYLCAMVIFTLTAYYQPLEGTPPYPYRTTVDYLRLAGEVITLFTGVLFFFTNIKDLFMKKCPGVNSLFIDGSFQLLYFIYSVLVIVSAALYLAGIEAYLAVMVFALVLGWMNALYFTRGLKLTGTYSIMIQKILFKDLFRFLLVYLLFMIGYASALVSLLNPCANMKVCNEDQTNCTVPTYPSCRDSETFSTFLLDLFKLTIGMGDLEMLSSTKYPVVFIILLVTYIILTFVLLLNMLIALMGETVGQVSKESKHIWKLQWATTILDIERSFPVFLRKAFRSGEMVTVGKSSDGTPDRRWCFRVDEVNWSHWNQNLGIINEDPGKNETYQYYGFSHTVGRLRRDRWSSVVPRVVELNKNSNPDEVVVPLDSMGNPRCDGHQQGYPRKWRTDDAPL

SMILES	Calcium mobilization by F340/380 (TRPV4; HTM cells treated with OCRL siRNA, 0.1 μM agonist, rescued by wild-type OCRL, not by D499A mutant)	Calcium mobilization (TRPV4; Lowe patient fibroblasts (Lowe 1, Lowe 2))	Calcium mobilization, F340/380 ratio (TRPV4; Lowe patient keratinocytes compared with normal keratinocytes (NHKC), 0.1 μM agonist)	Calcium flux as measured by F340/380 ratio (TRPV4; NHF cells, 0.1 μM agonist)	TRPV4-induced calcium flux, ratio of F340/380 (TRPV4; ciliated HTM cells, 50 mmHg hydrostatic pressure for 3 hours vs 0 mmHg)	Intraocular pressure (wpk−/− rats)	IOP (C57BL/6 WT mice) [mmHg]	Elevation of gene transcription (TNFα, TGFβ1, Gli1 mRNA) in response to pressure (HTM cells)
CC(C)C[C@H](NC(=O)c1cc2ccccc2s1)C(=O)N1CCN(C(=O)[C@H](CO)NS(=O)(=O)c2ccc(Cl)cc2Cl)CC1 [GSK1016790A, N-((1S)-1-{[4-((2S)-2-{[(2,4-dichlorophenyl)sulfonyl]amino}-3-hydroxypropanoyl)-1-piperazinyl]carbonyl}-3-methylbutyl)-1-benzothiophene-2-carboxamide]	decrease in F340/F380 fura-2 signaling	failed to elicit calcium mobilization	failed to elicit calcium mobilization	elicited	significant decrease in TRPV4-induced calcium flux	significantly reduced	10.3	
Cc1c(C(=O)Nc2cccc(C(F)(F)F)c2)cc(-c2ccccc2)n1CCCN1CCOCC1 [HC 067047]						not		
OC(O)C(Cl)(Cl)Cl [chlorohydrate]								reduced the elevation of gene transcription in response to pressure
